Values quoted from earlier work as cited in US11530415B2, “Genetically engineered Streptomyces capable of thaxtomin production in the absence of thaxtomin-inducing conditions and methods of producing thaxtomin” (University of Florida Research Foundation, Inc., priority 2017, dated 2022).

Test system: cellulose biosynthesis
Details: background statement, no method given

CN1C(=O)[C@](O)(Cc2cccc(O)c2)N(C)C(=O)[C@@H]1Cc1c[nH]c2cccc([N+](=O)[O-])c12 [Thaxtomin A, thaxtomin A]
potency in inhibiting cellulose biosynthesis: excellent potency (in an nM range)
